Test results published in patent US20180168208A1 (priority 2014, published 2018).
Where two headings read alike, the source gives them in different places.

Experiments:
cat T1R1/T1R3 receptor = molecular target: T1, cat T1R1/T1R3 receptor (Felis catus, UniProt A0ABI7Z2I4); test: cell-based; conditions: for function as activators of T1R1/T1R3 (in words): in the presence of alanine
T1 sequence (A0ABI7Z2I4 171-420): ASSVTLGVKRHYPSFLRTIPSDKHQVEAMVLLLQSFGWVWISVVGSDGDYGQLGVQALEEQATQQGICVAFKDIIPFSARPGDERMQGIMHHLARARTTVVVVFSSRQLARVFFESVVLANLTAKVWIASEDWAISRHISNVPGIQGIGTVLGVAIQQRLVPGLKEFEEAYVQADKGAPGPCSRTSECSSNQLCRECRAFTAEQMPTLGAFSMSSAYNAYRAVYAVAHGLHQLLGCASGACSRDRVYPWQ
T1 sequence (Q49KI5 25-865 E206Q/N523D/F654L partner): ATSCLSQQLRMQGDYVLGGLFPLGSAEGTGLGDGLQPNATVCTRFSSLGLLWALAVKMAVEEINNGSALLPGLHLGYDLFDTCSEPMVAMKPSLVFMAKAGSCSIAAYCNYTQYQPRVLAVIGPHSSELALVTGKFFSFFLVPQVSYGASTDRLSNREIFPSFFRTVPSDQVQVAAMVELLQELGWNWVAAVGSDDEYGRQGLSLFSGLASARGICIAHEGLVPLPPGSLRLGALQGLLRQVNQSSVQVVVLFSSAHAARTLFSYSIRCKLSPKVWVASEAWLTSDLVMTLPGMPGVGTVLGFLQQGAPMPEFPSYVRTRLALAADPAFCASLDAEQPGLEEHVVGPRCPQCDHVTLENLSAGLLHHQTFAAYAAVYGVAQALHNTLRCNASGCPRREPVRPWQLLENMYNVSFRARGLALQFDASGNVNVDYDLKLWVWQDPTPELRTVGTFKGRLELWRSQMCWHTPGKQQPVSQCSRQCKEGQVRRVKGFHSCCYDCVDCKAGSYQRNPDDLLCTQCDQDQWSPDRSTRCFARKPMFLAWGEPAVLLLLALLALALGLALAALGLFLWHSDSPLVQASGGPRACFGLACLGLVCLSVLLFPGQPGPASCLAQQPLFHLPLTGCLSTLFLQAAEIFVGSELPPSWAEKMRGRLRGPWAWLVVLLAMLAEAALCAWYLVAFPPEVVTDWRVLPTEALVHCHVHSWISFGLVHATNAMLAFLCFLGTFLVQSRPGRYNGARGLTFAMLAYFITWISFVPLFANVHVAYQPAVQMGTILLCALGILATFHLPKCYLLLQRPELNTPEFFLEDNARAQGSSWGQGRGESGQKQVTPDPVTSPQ
Description: (§1) HEK293 cells that stably express T1R3 and inducibly express T1R1 were exposed to nucleotide derivatives alone or in combination with one or more amino acids and/or one or more nucleotides to activate the umami receptor. Activation of the T1R1/T1R3 receptor was detected by a change in intracellular calcium levels using a calcium sensitive fluorescent dye and/or a luminescent reporter system. Cells that express T1R3 but not T1R1 were used as a control. A FLIPR® Tetra or a FlexStation® 3 was used for data capture.

T1R1/T1R3 receptor = T1R1/T1R3 receptor (Felis catus, UniProt E3UMS2); test: cell-based; type: cell-based
Description: as §1, with “transmembrane compounds” for “nucleotide derivatives”, “dye.” for “dye and/or a luminescent reporter system.”
In each experiment, serial dilutions of up to 10 mM of the transmembrane compound were added to the T1R1/T1R3-expressing cells.

Structure (SMILES)	Activity (cat T1R1/T1R3 receptor)	Threshold (cat T1R1/T1R3 receptor)	Max resp. (ΔF/F) (cat T1R1/T1R3 receptor)	Max. resp. % of IMP (cat T1R1/T1R3 receptor)	further results
Nc1ncnc2c1ncn2[C@H]1C[C@H](O)[C@@H](COP(=O)(O)O)O1 [2′-Deoxyadenosine 5′-monophosphate]	active	0.035 mM	–	–	EC50 (cat T1R1/T1R3 receptor): 140 µM
Nc1ncnc2c1ncn2[C@H]1C[C@H](OP(=O)(O)O)[C@@H](COP(=O)(O)O)O1 [2′-Deoxyadenosine-3′,5′-O-bisphosphate]	active	–	–	–	–
Nc1ncnc2c1ncn2C1CC(O)C(COP(O)(O)=S)O1 (stereo not shown) [2′-Deoxyadenosine-5′-O-monophosphorothioate]	active	0.015 mM	–	–	–
Nc1nc2c(ncn2C2CC(OP(=O)(O)O)C(COP(=O)(O)O)O2)c(=O)[nH]1 (stereo not shown) [2′-Deoxyguanosine-3′,5′-O-bisphosphate]	active	0.005 mM	1.8925 ΔF/F	152.3 % of IMP	function as activators of T1R1/T1R3 (in words) (cat T1R1/T1R3 receptor): activators of T1R1/T1R3
Nc1nc2c(ncn2C2CC(O)C(COP(O)(O)=S)O2)c(=O)[nH]1 (stereo not shown) [2′-Deoxyguanosine-5′-O-monophosphorothioate]	active	0.0025 mM	1.0775 ΔF/F	86.7 % of IMP	function as activators of T1R1/T1R3 (in words) (cat T1R1/T1R3 receptor): activators of T1R1/T1R3
Nc1nc2c(ncn2[C@H]2C[C@H](O)[C@@H](COP(O)(O)=S)O2)c(=O)[nH]1 [2′-Deoxyguanosine-5′-O-monophosphorothioate]	active	0.005 mM	–	–	function as activators of T1R1/T1R3 (in words) (cat T1R1/T1R3 receptor): activators of T1R1/T1R3
O=c1[nH]cnc2c1ncn2C1CC(O)C(COP(O)(O)=S)O1 (stereo not shown) [2′-Deoxyinosine-5′-O-monophosphorothioate]	active	0.025 mM	–	–	–
O=c1ccn([C@H]2C[C@H](O)[C@@H](COP(O)(O)=S)O2)c(=O)[nH]1 [2′-Deoxyuridine-5′-O-monophosphorothioate (5′-dUMPS)]	–	5.000 mM	0.4200 ΔF/F	43.4 % of IMP	–
O=c1ccn([C@H]2C[C@H](O)[C@@H](COP(O)(O)=S)O2)c(=O)[nH]1 [2′-Deoxyuridine-5′-O-monophosphorothioate]	–	–	–	–	EC50 (cat T1R1/T1R3 receptor): > 30000 µM
O=c1ccn([C@H]2C[C@H](O)[C@@H](COP(O)(O)=S)O2)c(=O)[nH]1 [2′-Deoxyuridine-5′-O-monophosphosphorothioate (5′-dUMPS)]	active	5.000 mM	0.4200 ΔF/F	43.4 % of IMP	–
NC(=O)c1ncn(C2OC(COP(=O)(O)O)C(O)C2O)c1N [5-Aminoimidazole-4-carboxamide-1-β-D-ribofuranosyl 5′-monophosphate]	active	0.200 mM	–	–	EC50 (cat T1R1/T1R3 receptor): > 1000 µM
O=P(O)(O)OCC1OC(n2cnc3c(Cl)ncnc32)C(O)C1O (stereo not shown) [6-Chloropurineriboside-5′-O-monophosphate]	active	–	1.5325 ΔF/F	123.3 % of IMP	–
CCC(CC)NC(=O)c1ccc2c(c1)OCCO2 [N-(pentan-3-yl)-2,3-dihydrobenzo[b][1,4]dioxine-6-carboxamide]	–	–	–	–	Thres +Alanine (T1R1/T1R3 receptor; + Alanine (20 nM), Table 17): 0.3 mM; Max resp % of IMP + Alanine (T1R1/T1R3 receptor; + Alanine, Table 17): 25.2 % of IMP; Max resp ΔF/F +Alanine (T1R1/T1R3 receptor; + Alanine, Table 17): 0.3125; EC50 (T1R1/T1R3 receptor; + Alanine, Table 17, read-out: EC50 + Alanine): > 1000 µM; Max resp % of ALa + IMP (T1R1/T1R3 receptor; + IMP (0.2 mM), Table 17): 70.9 % of ALa; Thres + IMP (T1R1/T1R3 receptor; + IMP (0.2 mM), Table 17): 0.075 mM; Max resp ΔF/F +Alanine (T1R1/T1R3 receptor; +Alanine (20 mM), Table 18): 0.3125; Thres +Alanine (T1R1/T1R3 receptor; +Alanine (20 mM), Table 18): 0.3 mM; EC50 (T1R1/T1R3 receptor; +Alanine (20 mM), Table 18, read-out: EC50 +Alanine): > 1000 µM; Max resp % of Ala +IMP (T1R1/T1R3 receptor; +IMP (0.2 mM), Table 18): 70.9 % of Ala; Max resp ΔF/F +IMP (T1R1/T1R3 receptor; +IMP (0.2 mM), Table 18): 0.8725; EC50 (T1R1/T1R3 receptor; EC50 + IMP, + IMP (0.2 mM), Table 17): 300 µM; EC50 (T1R1/T1R3 receptor; EC50 +Alanine + IMP, +Alanine (20 mM) + IMP (0.2 mM), Table 18): 200 µM; EC50 (T1R1/T1R3 receptor; EC50 +IMP, +IMP (0.2 mM), Table 18): 300 µM; EC50 (T1R1/T1R3 receptor; compound alone in buffer, Table 17, read-out: EC50 + buffer (alone)): > 1000 µM; EC50 (T1R1/T1R3 receptor; compound alone in buffer, Table 18, read-out: EC50 +buffer (alone)): > 1000 µM
N[C@@H](Cc1ccccc1)C(=O)O [Phenylalanine, phenylalanine]	–	–	–	–	EC50 (T1R1/T1R3 receptor; EC50 - with IMP (0.2 mM), with 0.2 mM IMP): 3400 ± 700 µM
